This assay relates to YAP/TAZ-TEAD transcription. The assay can be described thus: Reporter gene assay for measuring the inhibition of YAP/TAZ-TEAD transcription. The note with it: Homo sapiens, HEK-293T; Hek293T cells transiently transfected with TEAD-responsive element luciferase reporter; 24 hours incubation. It counts as cell-based. As for the experimental part:
Hek293T cells are cultured in DMEM supplemented with 10% fetal bovine serum, Sodium pyruvate, Sodium bicarbonate, L-glutamine. The cells are harvested and transiently transfected with TEAD-responsive element luciferase reporter. Transfected cells are plated in 384-wells plate containing pre-diluted compounds. After 24 hours incubation at 37° C./5% CO2, assay plates were cooled down to RT and levelled to an equal volume per well, prior to the addition of 25 uL luciferase substrate SteadyLite (Perkin Elmer)/well. The plate was shaken for 10 min at 600 rpm, centrifuged for 1 min at 500 rpm and measured with an Envision reader (PerkinElmer). The amount of relative light units produced by the TEAD reporter is used to calculated percent of inhibition.
The percent of reporter inhibition was calculated in the presence of a positive control inhibitor (100% inhibition) versus a condition with the presence of the vehicle basal activity of the reporter (0% inhibition). The ability of a test compound to inhibit this activity was determined as: Percentage inhibition=[1−((RLU determined in the presence of vehicle−RLU determined for sample with test compound present) divided by (RLU determined in the presence of vehicle−RLU determined for sample with positive control inhibitor))]*100 The activities of example compounds tested are depicted in Table 8. The activity ranges A, B and C refer to IC50 values in the reporter gene assay as follows: “A”: EC50<1 μM; “B”: 1 μM≤EC50≤3.0 μM and “C”: EC50>3.0 μM, NT=not tested.

Structures are written as SMILES.

Regarding `Cn1ccc(-c2nc(-c3ccccc3)nc3c2CC(N)CC3)n1` (stereo not shown) [Cpd. No. 1, 4-(1-methyl-1H-pyrazol-3-yl)-2-phenyl-5,6,7,8-tetrahydroquinazolin-6-amine], the EC50 is more than 3000 nM.
For the molecule `C=CC(=O)NC1CCc2nc(-c3ccccc3)nc(-c3ccn(C)n3)c2C1` (stereo not shown) [Cpd. No. 2, N-(4-(1-methyl-1H-pyrazol-3-yl)-2-phenyl-5,6,7,8-tetrahydroquinazolin-6-yl)acrylamide], the EC50 was more than 3000 nM.
For `CCC(=O)NC1CCc2nc(-c3ccccc3)nc(-c3ccn(C)n3)c2C1` (stereo not shown) [Cpd. No. 3, N-(4-(1-methyl-1H-pyrazol-3-yl)-2-phenyl-5,6,7,8-tetrahydroquinazolin-6-yl)propionamide] the value was more than 3000 nM.
Take `Cn1ccc(-c2nc(-c3ccccc3)nc3c2CC(NS(C)(=O)=O)CC3)n1` (stereo not shown) [Cpd. No. 4, N-(4-(1-methyl-1H-pyrazol-3-yl)-2-phenyl-5,6,7,8-tetrahydroquinazolin-6-yl)methanesulfonamide]: the EC50 was more than 3000 nM.
The molecule `Cn1ccc(-c2nc(-c3ccccc3)nc3c2CCC(N)C3)n1` (stereo not shown) [Cpd. No. 5, 4-(1-methyl-1H-pyrazol-3-yl)-2-phenyl-5,6,7,8-tetrahydroquinazolin-7-amine] returned an EC50 of more than 3000 nM.
Molecule `C=CC(=O)NC1CCc2c(nc(-c3ccccc3)nc2-c2ccn(C)n2)C1` (stereo not shown) [Cpd. No. 6, N-(4-(1-methyl-1H-pyrazol-3-yl)-2-phenyl-5,6,7,8-tetrahydroquinazolin-7-yl)acrylamide] registered an EC50 of more than 3000 nM.
To `CCC(=O)NC1CCc2c(nc(-c3ccccc3)nc2-c2ccn(C)n2)C1` (stereo not shown) [Cpd. No. 7, N-(4-(1-methyl-1H-pyrazol-3-yl)-2-phenyl-5,6,7,8-tetrahydroquinazolin-7-yl)propionamide] belongs more than 3000 nM.
As for `Cn1ccc(-c2nc(-c3ccccc3)nc3c2CCC(NS(C)(=O)=O)C3)n1` (stereo not shown) [Cpd. No. 8, N-(4-(1-methyl-1H-pyrazol-3-yl)-2-phenyl-5,6,7,8-tetrahydroquinazolin-7-yl)methanesulfonamide], the EC50 was more than 3000 nM.
For `C=CC(=O)NC1CCc2nc(-c3ccccc3)nc(-c3ccn(Cc4cccnc4)n3)c2C1` (stereo not shown) [Cpd. No. 9, N-(2-phenyl-4-(1-(pyridin-3-ylmethyl)-1H-pyrazol-3-yl)-5,6,7,8-tetrahydroquinazolin-6-yl)acrylamide] the value was more than 3000 nM; for `CCC(=O)NC1CCc2nc(-c3ccccc3)nc(-c3ccn(Cc4cccnc4)n3)c2C1` (stereo not shown) [Cpd. No. 10, N-(2-phenyl-4-(1-(pyridin-3-ylmethyl)-1H-pyrazol-3-yl)-5,6,7,8-tetrahydroquinazolin-6-yl)propionamide], more than 3000 nM; for `C=CC(=O)NC1CCc2c(nc(-c3ccccc3)nc2-c2ccn(Cc3cccnc3)n2)C1` (stereo not shown) [Cpd. No. 11, N-(2-phenyl-4-(1-(pyridin-3-ylmethyl)-1H-pyrazol-3-yl)-5,6,7,8-tetrahydroquinazolin-7-yl)acrylamide], 1000 to 3000 nM.
To `CCC(=O)NC1CCc2c(nc(-c3ccccc3)nc2-c2ccn(Cc3cccnc3)n2)C1` (stereo not shown) [Cpd. No. 12, N-(2-phenyl-4-(1-(pyridin-3-ylmethyl)-1H-pyrazol-3-yl)-5,6,7,8-tetrahydroquinazolin-7-yl)propionamide] belongs more than 3000 nM; to `CS(=O)(=O)NC1CCc2c(nc(-c3ccccc3)nc2-c2ccn(Cc3cccnc3)n2)C1` (stereo not shown) [Cpd. No. 13, N-(2-phenyl-4-(1-(pyridin-3-ylmethyl)-1H-pyrazol-3-yl)-5,6,7,8-tetrahydroquinazolin-7-yl)methanesulfonamide], more than 3000 nM.
In the case of `C=CC(=O)N1Cc2nc(-c3ccccc3)nc(-c3ccn(C)n3)c2C1` [Cpd. No. 14, 1-(4-(1-methyl-1H-pyrazol-3-yl)-2-phenyl-5,7-dihydro-6H-pyrrolo[3,4-d]pyrimidin-6-yl)prop-2-en-1-one], the EC50 was less than 1000 nM.
For the molecule `CCC(=O)N1Cc2nc(-c3ccccc3)nc(-c3ccn(C)n3)c2C1` [Cpd. No. 15, 1-(4-(1-methyl-1H-pyrazol-3-yl)-2-phenyl-5,7-dihydro-6H-pyrrolo[3,4-d]pyrimidin-6-yl)propan-1-one], the EC50 is more than 3000 nM.
`Cn1ccc(-c2nc(-c3ccccc3)nc3c2CN(S(C)(=O)=O)C3)n1` [Cpd. No. 16, 4-(1-methyl-1H-pyrazol-3-yl)-6-(methylsulfonyl)-2-phenyl-6,7-dihydro-5H-pyrrolo[3,4-d]pyrimidine]: the EC50 is more than 3000 nM.
To `C=CC(=O)N1Cc2nc(Cc3ccccc3)nc(-c3ccn(Cc4cccnc4)n3)c2C1` [Cpd. No. 17, 1-(2-benzyl-4-(1-(pyridin-3-ylmethyl)-1H-pyrazol-3-yl)-5,7-dihydro-6H-pyrrolo[3,4-d]pyrimidin-6-yl)prop-2-en-1-one] belongs less than 1000 nM; to `CCC(=O)N1Cc2nc(Cc3ccccc3)nc(-c3ccn(Cc4cccnc4)n3)c2C1` [Cpd. No. 18, 1-(2-benzyl-4-(1-(pyridin-3-ylmethyl)-1H-pyrazol-3-yl)-5,7-dihydro-6H-pyrrolo[3,4-d]pyrimidin-6-yl)propan-1-one], 1000 to 3000 nM; to `CS(=O)(=O)N1Cc2nc(Cc3ccccc3)nc(-c3ccn(Cc4cccnc4)n3)c2C1` [Cpd. No. 19, 2-benzyl-6-(methylsulfonyl)-4-(1-(pyridin-3-ylmethyl)-1H-pyrazol-3-yl)-6,7-dihydro-5H-pyrrolo[3,4-d]pyrimidine], 1000 to 3000 nM.
As to `CCC(=O)N1Cc2nc(Cc3ccccc3)nc(-c3ccn(C)n3)c2C1` [Cpd. No. 21, 1-(2-benzyl-4-(1-methyl-1H-pyrazol-3-yl)-5,7-dihydro-6H-pyrrolo[3,4-d]pyrimidin-6-yl)propan-1-one], the EC50 fell in the range of 1000 to 3000 nM.
To `Cn1ccc(-c2nc(Cc3ccccc3)nc3c2CN(S(C)(=O)=O)C3)n1` [Cpd. No. 22, 2-benzyl-4-(1-methyl-1H-pyrazol-3-yl)-6-(methylsulfonyl)-6,7-dihydro-5H-pyrrolo[3,4-d]pyrimidine] belongs more than 3000 nM; to `C=CC(=O)N1Cc2nc(-c3ccccc3)nc(-c3ccn(Cc4cccnc4)n3)c2C1` [Cpd. No. 23, 1-(2-phenyl-4-(1-(pyridin-3-ylmethyl)-1H-pyrazol-3-yl)-5,7-dihydro-6H-pyrrolo[3,4-d]pyrimidin-6-yl)prop-2-en-1-one], less than 1000 nM; to `CCC(=O)N1Cc2nc(-c3ccccc3)nc(-c3ccn(Cc4cccnc4)n3)c2C1` [Cpd. No. 24, 1-(2-phenyl-4-(1-(pyridin-3-ylmethyl)-1H-pyrazol-3-yl)-5,7-dihydro-6H-pyrrolo[3,4-d]pyrimidin-6-yl)propan-1-one], 1000 to 3000 nM.
To `CS(=O)(=O)N1Cc2nc(-c3ccccc3)nc(-c3ccn(Cc4cccnc4)n3)c2C1` [Cpd. No. 25, 6-(methylsulfonyl)-2-phenyl-4-(1-(pyridin-3-ylmethyl)-1H-pyrazol-3-yl)-6,7-dihydro-5H-pyrrolo[3,4-d]pyrimidine] belongs 1000 to 3000 nM; to `CC(=O)NCC(=O)N1Cc2nc(-c3ccccc3)nc(-c3ccn(Cc4cccnc4)n3)c2C1` [Cpd. No. 26, N-(2-oxo-2-(2-phenyl-4-(1-(pyridin-3-ylmethyl)-1H-pyrazol-3-yl)-5,7-dihydro-6H-pyrrolo[3,4-d]pyrimidin-6-yl)ethyl)acetamide], more than 3000 nM.
`CC(=O)NCC(=O)N1Cc2nc(Cc3ccccc3)nc(-c3ccn(Cc4cccnc4)n3)c2C1` [Cpd. No. 27, N-(2-(2-benzyl-4-(1-(pyridin-3-ylmethyl)-1H-pyrazol-3-yl)-5,7-dihydro-6H-pyrrolo[3,4-d]pyrimidin-6-yl)-2-oxoethyl)acetamide] came in with an EC50 of more than 3000 nM.
To `CS(=O)(=O)NCC(=O)N1Cc2nc(Cc3ccccc3)nc(-c3ccn(Cc4cccnc4)n3)c2C1` [Cpd. No. 28, N-(2-(2-benzyl-4-(1-(pyridin-3-ylmethyl)-1H-pyrazol-3-yl)-5,7-dihydro-6H-pyrrolo[3,4-d]pyrimidin-6-yl)-2-oxoethyl)methanesulfonamide] belongs more than 3000 nM; to `O=S(=O)(F)CCN1Cc2nc(-c3ccccc3)nc(-c3ccn(Cc4cccnc4)n3)c2C1` [Cpd. No. 29, 2-(2-phenyl-4-(1-(pyridin-3-ylmethyl)-1H-pyrazol-3-yl)-5,7-dihydro-6H-pyrrolo[3,4-d]pyrimidin-6-yl)ethane-1-sulfonyl fluoride], more than 3000 nM; to `O=S(=O)(F)CCN1Cc2nc(Cc3ccccc3)nc(-c3ccn(Cc4cccnc4)n3)c2C1` [Cpd. No. 30, 2-(2-benzyl-4-(1-(pyridin-3-ylmethyl)-1H-pyrazol-3-yl)-5,7-dihydro-6H-pyrrolo[3,4-d]pyrimidin-6-yl)ethane-1-sulfonyl fluoride], more than 3000 nM.
Molecule `CNS(=O)(=O)CCN1Cc2nc(-c3ccccc3)nc(-c3ccn(Cc4cccnc4)n3)c2C1` [Cpd. No. 31, N-methyl-2-(2-phenyl-4-(1-(pyridin-3-ylmethyl)-1H-pyrazol-3-yl)-5,7-dihydro-6H-pyrrolo[3,4-d]pyrimidin-6-yl)ethane-1-sulfonamide] came in with a concentration giving a half-maximal response (EC50) of 1000 to 3000 nM.
Molecule `CCC(=O)N1CCc2c(nc(Cc3ccccc3)nc2-c2ccn(C)n2)C1` [Cpd. No. 33, 1-(2-benzyl-4-(1-methyl-1H-pyrazol-3-yl)-5,8-dihydropyrido[3,4-d]pyrimidin-7(6H)-yl)propan-1-one] had an EC50 of more than 3000 nM.

The record behind these values is patent US12516064B2, “Tetrahydropyridopyrimidines and related analogs for inhibiting YAP/TAZ-TEAD” (THE KATHOLIEKE UNIVERSITEIT LEUVEN, priority 2022, dated 2026).
